# In patent publication US20100144727A1, “Oxazolidine and Morpholine Carboxamide Derivatives as P2X7 Modulators” (priority 2007, published 2010):
# Molecular target: T1, human P2X7 receptor (Homo sapiens, UniProt Q99572)
# T1 construct: expressed in transfected cells; host or cells: HEK293
# T1 sequence (Q99572 1-595): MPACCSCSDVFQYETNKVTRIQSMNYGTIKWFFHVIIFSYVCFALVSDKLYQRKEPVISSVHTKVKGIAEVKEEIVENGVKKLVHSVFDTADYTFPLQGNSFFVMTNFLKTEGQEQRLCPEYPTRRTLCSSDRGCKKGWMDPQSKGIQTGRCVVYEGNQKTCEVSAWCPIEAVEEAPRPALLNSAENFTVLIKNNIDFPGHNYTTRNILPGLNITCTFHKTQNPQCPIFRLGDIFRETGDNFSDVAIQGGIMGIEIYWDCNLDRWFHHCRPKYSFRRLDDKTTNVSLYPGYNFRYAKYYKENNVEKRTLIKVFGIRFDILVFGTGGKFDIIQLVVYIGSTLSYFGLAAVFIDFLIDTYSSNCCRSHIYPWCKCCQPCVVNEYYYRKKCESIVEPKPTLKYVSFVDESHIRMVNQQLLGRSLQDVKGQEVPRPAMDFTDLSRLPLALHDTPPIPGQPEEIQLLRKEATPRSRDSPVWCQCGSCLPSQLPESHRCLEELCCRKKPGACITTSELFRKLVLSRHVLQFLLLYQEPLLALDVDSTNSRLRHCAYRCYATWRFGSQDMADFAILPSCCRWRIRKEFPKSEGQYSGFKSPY
# Assay: Ethidium Accumulation Assay
# Format: cell-based
# Conditions: HEK293 cells expressing human recombinant P2X7 receptors; 1 mM ATP; ethidium 100 μM; read-out: pIC50 in the Ethidium Accumulation Assay (antagonist, blocking ATP responses) (converted)
# Method: Studies were performed using NaCl assay buffer of the following composition (in mM): 140 mM NaCl, HEPES 10, N-methyl-D-glucamine 5, KCl 5.6, D-glucose 10, CaCl2 0.5 (pH 7.4). HEK293 cells, expressing human recombinant P2X7 receptors, were grown in poly-L-lysine pretreated 96 well plates for 18-24 h. […] The cells were washed twice with 350 μl of assay buffer before addition of 50 μl of antagonist. The cells were then incubated at room temperature (19-21° C.) for 30 min before addition of ATP and ethidium (100 μM final assay concentration). The ATP concentration was chosen to be close to the EC80 for the receptor type and was 1 mM for studies on the human P2X7 receptor. Incubations were continued for 8 or 16 min and were terminated by addition of 25 μl of 1.3M sucrose containing 5 mM of the P2X7 receptor antagonist reactive black 5 (Aldrich). Cellular accumulation of ethidium was determined by measuring fluorescence (excitation wavelength of 530 nm and emission wavelength of 620 nm) from below the plate with a Canberra Packard Fluorocount (Pangbourne, UK). Antagonist pIC50 values for blocking ATP responses were determined using iterative curve fitting techniques.
row,SMILES,IC50 [µM]
1,"CCN1C(=O)OC[C@H]1C(=O)NCc1ccc(F)cc1Cl [Example E1, N-[(2-chloro-4-fluorophenyl)methyl]-3-ethyl-2-oxo-1,3-oxazolidine-4-carboxamide]",≤ 0.1
2,"CN1C(=O)OCC1C(=O)NCc1cccc(C(F)(F)F)c1Cl (stereo not shown) [Example E3, N-{[2-chloro-3-(trifluoromethyl)phenyl]methyl}-3-methyl-2-oxo-1,3-oxazolidine-4-carboxamide]",≤ 0.1
3,"CN1C(=O)OC[C@H]1C(=O)NCc1cccc(C(F)(F)F)c1Cl [Example E4, N-{[2-chloro-3-(trifluoromethyl)phenyl]methyl}-3-methyl-2-oxo-1,3-oxazolidine-4-carboxamide]",≤ 0.1
4,"CN1C(=O)COCC1C(=O)NCc1cccc(C(F)(F)F)c1Cl (stereo not shown) [Example E10, N-{[2-chloro-3-(trifluoromethyl)phenyl]methyl}-4-methyl-5-oxo-3-morpholinecarboxamide]",≤ 0.1
